Reference: article PMC5918145, “Quantification of amino acids and peptides in an ionic liquid based aqueous two-phase system by LC–MS analysis” (AMB Express, 2018)
Entries after “also recorded” stand apart in the source; their conditions may differ. Read-outs that look alike come from different tables or passages of the source. Marks after values point to notes of the source that are not given here. Where a SMILES comes first, the peptide text is derived from it.

Columns and labels:
[1] = Distribution ratio (logD) in ionic liquid-based aqueous two-phase system (Ammoeng 110/K2HPO4); conditions: Ammoeng 110 (0.60–0.65 g, filled to 4 g) / K2HPO4-KH2PO4 buffer, vortex 45 s, 5 min phase separation, LC–MS after EZ:faast SPE and derivatization (peptides after 6 M HCl hydrolysis, 20 h, 110 °C), duplicates, numbers only plotted (Fig. 2, Fig. 3)
[2] = parameters: method as in 2 sources, ref Hardy (1985) ||| ref Jakubke and Jeschkeit (1982); conditions: isoelectric point of free amino acid, cited from earlier work
[3] = parameters: method as in Kyte and Dolittle (1982); conditions: hydropathy scale; ref Kyte and Dolittle (1982); cited from earlier work

Row | SMILES | Distribution in IL-ATPS (logD, D = c upper phase / c lower phase), in words ([1]; pH 6.0) | Distribution in IL-ATPS (logD, D = c upper phase / c lower phase), in words ([1]; pH 7.0) | pI ([2]; ref Hardy (1985)) | Hydrophobicity of the side chain [3] | pI ([2]; ref Jakubke and Jeschkeit (1982))
1 | C[C@H](N)C(=O)N[C@@H](C)C(=O)N[C@@H](CC(=O)O)C(=O)N[C@@H](C)C(=O)N[C@@H](C)C(=O)O [AADAA] | concentrated in the ionic liquid-containing upper phase | concentrated in the ionic liquid-containing upper phase |  |  | 
2 | C[C@H](N)C(=O)N[C@@H](C)C(=O)N[C@@H](Cc1ccccc1)C(=O)N[C@@H](C)C(=O)N[C@@H](C)C(=O)O [AAFAA] (H-AAFAA-OH) | concentrated in the ionic liquid-containing upper phase | concentrated in the ionic liquid-containing upper phase |  |  | 
3 | C[C@H](N)C(=O)N[C@@H](C)C(=O)NCC(=O)N[C@@H](C)C(=O)N[C@@H](C)C(=O)O [AAGAA] (H-AAGAA-OH) | almost equally distributed between the two phases | almost equally distributed between the two phases; also recorded: slightly more concentrated in the ionic liquid rich upper phase |  |  | 
4 | C[C@H](N)C(=O)N[C@@H](C)C(=O)N[C@@H](Cc1c[nH]cn1)C(=O)N[C@@H](C)C(=O)N[C@@H](C)C(=O)O [AAHAA] | enriched in the upper phase | accumulation of AAHAA in the upper phase was also detected, but not as strong as at pH 6.0 |  |  | 
5 | CC(C)C[C@H](NC(=O)[C@H](C)NC(=O)[C@H](C)N)C(=O)N[C@@H](C)C(=O)N[C@@H](C)C(=O)O [AALAA] (H-AALAA-OH) | almost equally distributed between the two phases | almost equally distributed between the two phases; also recorded: slightly more concentrated in the ionic liquid rich upper phase |  |  | 
6 | C[C@H](N)C(=O)N[C@@H](C)C(=O)N[C@@H](CO)C(=O)N[C@@H](C)C(=O)N[C@@H](C)C(=O)O [AASAA] (H-AASAA-OH) | concentrated in the ionic liquid-containing upper phase | concentrated in the ionic liquid-containing upper phase |  |  | 
7 | N[C@@H](CCC(=O)O)C(=O)O [Glutamic acid] | strongly enriched in the ionic liquids-containing upper phase | strongly enriched in the ionic liquids-containing upper phase | 3.24^a |  | 
8 | NCC(=O)O [Glycine] | distributed equally between the ionic liquid-rich upper and the phosphate-rich lower phase | distributed more into the ionic liquid-rich upper phase | 5.97^a |  | 
9 | N[C@@H](Cc1c[nH]cn1)C(=O)O [Histidine] | strongly enriched in the ionic liquids-containing upper phase | strongly enriched in the ionic liquids-containing upper phase | 7.59^a |  | 
10 | CC(C)C[C@H](N)C(=O)O [Leucine] | distributed equally between the ionic liquid-rich upper and the phosphate-rich lower phase | marginally higher concentrated in the phosphate buffer-rich lower phase |  |  | 
11 | N[C@@H](Cc1ccccc1)C(=O)O [Phenylalanine] | strongly enriched in the ionic liquids-containing upper phase | strongly enriched in the ionic liquids-containing upper phase |  | 2.8^c | 5.48^b
12 | N[C@@H](CO)C(=O)O [Serine] | distributed equally between the ionic liquid-rich upper and the phosphate-rich lower phase | distributed more into the ionic liquid-rich upper phase | 5.68^a |  | 
